Measurements taken from ChEMBL document CHEMBL1201862, “PubChem BioAssay data set” (2004).
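Growth conditions: 96-well plates. Treatment: test compound, 48 hours, 5 concentrations. Analysis: linear interpolation between bracketing concentrations; unreached endpoints set to highest concentration. GI50 is the concentration that inhibits growth by half.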 The source made the active and inactive calls. Rule as the data show it: active = GI50 up to about 1.1 µM and inactive = higher.

Columns and labels:
Test in all cases: NCI anticancer screen, dose series, 48 h
SF-295 = system: SF-295
SNB-78 = system: SNB-78
SF-539 = system: SF-539
UACC-62 = system: UACC-62
IGROV-1 = system: IGROV-1
CCRF-CEM = system: CCRF-CEM
U-251 = system: U-251
NCI-H522 = system: NCI-H522
UACC-257 = system: UACC-257
HL-60 = system: HL-60
SW-620 = system: SW-620
HCT-116 = system: HCT-116
DLD-1 = system: DLD-1
K562 = system: K562
NCI-H460 = system: NCI-H460
ACHN = system: ACHN
TK-10 = system: TK-10
Hs-578T = system: Hs-578T
MDA-N = system: MDA-N

Structure (SMILES)	GI50 (SF-295)	GI50 (SNB-78)	GI50 (SF-539)	GI50 (UACC-62)	GI50 (IGROV-1)	GI50 (CCRF-CEM)	GI50 (U-251)	GI50 (NCI-H522)	GI50 (UACC-257)	GI50 (HL-60)	GI50 (SW-620)	GI50 (HCT-116)	GI50 (DLD-1)	GI50 (K562)	GI50 (NCI-H460)	GI50 (ACHN)	GI50 (TK-10)	GI50 (Hs-578T)	GI50 (MDA-N)
CC(=O)c1ccc2c(c1)c1c(C)c3c[n+](C)ccc3c(C)c1n2C	0.885 µM (active)	4.53 µM (inactive)	2.37 µM (inactive)	1.87 µM (inactive)	16.5 µM (inactive)	3.76 µM (inactive)	0.706 µM (active)	13.7 µM (inactive)	6.35 µM (inactive)	8.75 µM (inactive)	1.03 µM (active)	2.29 µM (inactive)	4.56 µM (inactive)	14.8 µM (inactive)	2.76 µM (inactive)				
CC1C=C(OC(=O)c2ccccc2)C(=O)C(n2cc(F)c(=O)n(C(=O)c3ccccc3)c2=O)O1 (stereo unspecified)	78 µM (inactive)	51.2 µM (inactive)	89.5 µM (inactive)	35.3 µM (inactive)	> 100 µM (inactive)	18.1 µM (inactive)	37.3 µM (inactive)		70.1 µM (inactive)	23.9 µM (inactive)	34.3 µM (inactive)	32.1 µM (inactive)	41.6 µM (inactive)	25.4 µM (inactive)	> 100 µM (inactive)	50.5 µM (inactive)	69.3 µM (inactive)		
CCCn1cc2c(SC)nc(SC)nc2n1	> 100 µM (inactive)	> 100 µM (inactive)	> 100 µM (inactive)		> 100 µM (inactive)	> 100 µM (inactive)	> 100 µM (inactive)		> 100 µM (inactive)	> 100 µM (inactive)	> 100 µM (inactive)	> 100 µM (inactive)	> 100 µM (inactive)	> 100 µM (inactive)	> 100 µM (inactive)	> 100 µM (inactive)	> 100 µM (inactive)		
Cc1ccc2nc(-c3ccc(C(C)(C)C)cc3)oc(=O)c2c1	17.8 µM (inactive)		18.2 µM (inactive)	17.5 µM (inactive)	23.1 µM (inactive)	20.7 µM (inactive)	16.2 µM (inactive)	11.5 µM (inactive)	18.9 µM (inactive)	16.6 µM (inactive)	26.3 µM (inactive)	17 µM (inactive)		17.3 µM (inactive)	16.2 µM (inactive)	12.3 µM (inactive)	39.7 µM (inactive)	27.7 µM (inactive)	22.9 µM (inactive)
CN(C)C(=O)/C=C/c1c[nH]c(=O)[nH]c1=O	> 500 µM (inactive)		> 500 µM (inactive)	> 500 µM (inactive)	> 500 µM (inactive)	> 500 µM (inactive)	> 500 µM (inactive)	> 500 µM (inactive)	> 500 µM (inactive)	296 µM (inactive)	> 500 µM (inactive)	> 500 µM (inactive)	> 500 µM (inactive)	> 500 µM (inactive)	> 500 µM (inactive)				
C=C(C)C(=O)OC1C(C(C)CCCO)=C(CO)CC2OC(=O)C(=C)C21 (stereo unspecified)	47.2 µM (inactive)		23 µM (inactive)	14.9 µM (inactive)	15.6 µM (inactive)	12.6 µM (inactive)	20.2 µM (inactive)	3.44 µM (inactive)	17.1 µM (inactive)	6.41 µM (inactive)	14.7 µM (inactive)	14.6 µM (inactive)		15.2 µM (inactive)	16.4 µM (inactive)	24.1 µM (inactive)	30.3 µM (inactive)	16.8 µM (inactive)	16.7 µM (inactive)
COc1ccccc1N1CCN(CCCN2C(C(=O)c3ccccc3)=C(O)c3c(C)cc(C)nc3S2(=O)=O)CC1	35.7 µM (inactive)		> 100 µM (inactive)	> 100 µM (inactive)	72.1 µM (inactive)	52.5 µM (inactive)	58.6 µM (inactive)	32.2 µM (inactive)	74.1 µM (inactive)	79.4 µM (inactive)	89.7 µM (inactive)	61.2 µM (inactive)		56.5 µM (inactive)	52.8 µM (inactive)	89.1 µM (inactive)	> 100 µM (inactive)	59.3 µM (inactive)	> 100 µM (inactive)
